Key:
ob/ob mice = experiment: 1MT treatment of ob/ob mice (drinking water); assay type: in vivo
Text: Male C57Bl/6 Ido-1−/− mice were bought from the Jackson Laboratory (Jax) and bred in our facility. At weaning, mice were separated according to the genotype. Male ob/ob mice were bought from Janvier Laboratory at 4 weeks of age. Mice were fed with either a normal chow diet (NCD) (A03, SAFE, France) or subjected to diet-induced obesity containing 60% FAT (E15742-347, SSNIFF, Germany). High fat diet (HFD) was started at 7 weeks of age and continued for 20 weeks or less with ad libitum access to water and food. For chimerism experiment, we subjected 10 weeks old C57BL/6 WT and C57BL/6 Ido-1−/− to medullar aplasia by 9.5 gray lethal total body irradiation. We repopulated the mice with an intravenous injection of bone marrow cells isolated from femurs and tibias of male C57BL/6 WT and C57BL/6 Ido-1−/−. After 4 weeks of recovery, mice were fed a HFD for 20 weeks. In some experiments, IDO inhibitor (L-1methyl tryptophan, 1MT) (Sigma) was used at 2 mg/mL diluted in drinking water. […]
For oral glucose tolerance test (OGTT), mice were fasted overnight prior to an oral administration of 1-5 g/kg glucose. […] At 0, 15, 30, 60 min tail vein blood was collected, plasma samples were stored at −20° C. until they were analyzed for insulin concentration (Crystal Chem Inc., Downers Grove, USA). […]
HPLC Quantifications Thawed stools from mice were extracted as previously described 12. L-tryptophan (Trp) and L-kynurenine (Kyn) were measured via HPLC using a coulometric electrode array (ESA Coultronics, ESA Laboratories, Chelsford, Mass., USA)13. Quantifications were performed by referencing calibration curves obtained with internal standards. Other compounds (IAA) were quantified via liquid chromatography coupled to mass spectrometry (LC-MS) by using a Waters ACQUITY ultraperformance liquid chromatography (UPLC) system equipped with a binary solvent delivery manager and sample manager (Waters Corporation, Milford, Mass., USA) and that was coupled to a tandem quadrupole-time-of-flight (Q-TOF) mass spectrometer equipped with an electrospray interface (Waters Corporation). […]

WT mice on HFD = experiment: IAA supplementation in drinking water of WT mice on HFD; assay type: in vivo; conditions: IAA 2 mg/ml in drinking water, HFD 11 weeks, vs not supplemented, FIG. 3
Experimental: (a) feces IAA (indole acetic acid) (b) ITT, and quantification of M2-like macrophages (F4/80+CD11b+CD206+ in epiWAT) and CD45+ cells (n=5 per group) (c-d), in WT mice supplemented or not with IAA (diluted in drinking water, 2 mg/ml) and put on HFD during 11 weeks (n=9-10 per group Data are expressed as mean±sem. *P≤0.05, **p<0.001, ***p<0.0001.
For oral glucose tolerance test (OGTT), mice were fasted overnight prior to an oral administration of 1-5 g/kg glucose. Blood was sampled from the tail vein at 0, 5, 15, 30, 60, 90 and 120 min in order to assay glucose concentration (OneTouch Ultra glucometer, LifeScan Europe). At 0, 15, 30, 60 min tail vein blood was collected, plasma samples were stored at −20° C. until they were analyzed for insulin concentration (Crystal Chem Inc., Downers Grove, USA). Insulin tolerance test (ITT) was performed in mice food deprived for 5 h prior to an intraperitonial injection of 1 U/kg insulin. Blood was sampled from the tail vein at 0, 5, 15, 30, 60 and 90 min in order to assay glucose concentration. […]
The stromal vascular fraction (SVF) containing mononuclear cells and preadipocytes was extracted from adipose tissue. […] The SVF pellet was resuspended in 1 mL fluorescence-activated cell sorter (FACS) buffer. […] Samples were acquired using an Fortessa cytometer (Becton Dickinson) and analyzed with FlowJo (TreeStar) software programs.

[1] = 1MT 2 mg/mL in drinking water, vs untreated, data not shown

| SMILES | body weight (ob/ob mice; [1]) | insulin sensitivity (ob/ob mice; [1]) | ratio of Kyn/Trp in the feces (ob/ob mice; 1MT-treated vs not treated, FIG. 1j) | adipose inflammation (M2-like macrophages and CD45+ cells in epiWAT) (WT mice on HFD) | insulin resistance (ITT) (WT mice on HFD) |
| --- | --- | --- | --- | --- | --- |
| Cn1cc(C[C@H](N)C(=O)O)c2ccccc21 [1MT, L-1methyl tryptophan] | no difference in body weight | improved insulin sensitivity | significant decrease |  |  |
| O=C(O)Cc1c[nH]c2ccccc12 [IAA, indole-3-acetic acid] |  |  |  | decreases | decreases insulin resistance |

— patent US20210000889A1, “METHODS FOR PROGNOSING AND TREATING METABOLIC DISEASES” (INSERM (INSTITUT NATIONAL DE LA SANTÉ ET DE LA RECHERCHE …, priority 2018, published 2021)
